Source: patent publication US20260318831A1 (University of Cincinnati, priority 2023, published 2026)

How the values were obtained:
Type in all cases: cell-based
[1] = system: HeLa cells; assay: Photobleaching comparison of LTR and PyQPMe; settings: continuous confocal laser at 100% power
From the text: FIGS. 4A-4G depict the characterization of imaging properties of PyQPMe-stained endolysosomes. FIG. 4A. Confocal image of PyQPMe-stained endolysosomes and fluorescence intensity profile (FIG. 4B) of the write line in FIG. 4A. FIG. 4C. Confocal image of PyQPMe-stained late endosomes/lysosomes and fluorescence intensity profile (FIG. 4D) of the write line in FIG. 4C. FIG. 4E. Confocal images of HeLa cells labeled with LTR and PyQPMe and 3D fluorescence intensity plots of rectangles of integration. FIG. 4F. Continuous imaging of HeLa cells labeled with LTR or PyQPMe at 100% laser intensity for photobleaching, and each scan time was 10 s, images were captured under a red channel. FIG. 4G. Normalized fluorescence intensity of LTR and PyQPMe in FIG. 4F.
Resistance to photobleaching is a crucial property of probes that determines whether they can be used for long-term fluorescence tracking. To characterize this property, a photobleaching comparison study between LTR and PyQPMe was done in HeLa cells (FIG. 4F).
Leica Stellaris 8 Confocal imaging. High-resolution images were acquired on a commercial Leica Stellaris 8 Confocal Microscope under LIGHTNING mode. Laser powers were set at 10% intensity for 405 nm and 640 nm channels. […] High-resolution images were captured from the randomly selected field of view and analyzed with Leica LAS X and ImageJ software. […] All PCC values were analyzed in the CellProfiler.

[2] = system: endolysosomes in HeLa cells; assay: Dynamics of PyQPMe-stained endolysosomes during autophagy
Procedure: FIGS. 6A-6H depict the dynamics of PyQPMe-stained endolysosomes during autophagy. FIG. 6A. Confocal images of HeLa cells incubated with PyQPMe following treatment with or without CCCP for 24 h. FIG. 6B. Quantification of total endolysosomes and late endosomes/lysosomes in PyQPMe-stained HeLa cells with or without CCCP treatment. FIG. 6C. The ratio of the number of late endosomes/lysosomes to total endolysosomes in PyQPMe-stained HeLa cells treated with or without CCCP. FIG. 6D. Quantification of ratio of red to green intensity in PyQPMe-stained HeLa cells without CCCP treatment. FIG. 6E. Quantification of ratio of red to green intensity in PyQPMe-stained HeLa cells with CCCP treatment for 24 h. FIG. 6F. Confocal images of HeLa cells incubated with PyQPMe following treatment with or without rapamycin for 24 h. FIG. 6G. Quantification of total endolysosomes and late endosomes/lysosomes in PyQPMe-stained HeLa cells with or without rapamycin treatment. FIG. 6H. The ratio of the number of late endosomes/lysosomes to total endolysosomes in PyQPMe-stained HeLa cells treated with or without rapamycin. Data are given as M±SEM (n=10 independent samples from 10 cells for each statistical analysis); the statistical differences were analyzed by Student's t-test, p<0.05 is considered to statistical significant (**** p≤0.0001; ns p>0.05).
Autophagy is a natural degradation process of cells that removes unnecessary or damaged biological macromolecules or organelles to maintain homeostasis. After autophagosomes engulf unnecessary components, both late endosomes and lysosomes can fuse with autophagosomes to degrade autophagosomal cargo by forming amphisomes and autolysosomes, respectively. To study the behavior of endolysosomes during autophagy, carbonyl [COMPOUND LEFT OUT] m-chlorophenyl hydrazone (CCCP), a common inducer for mitophagy (one type of autophagy), was exploited to induce autophagy in PyQPMe-stained cells. Cells were treated with 10 μM CCCP for 24 h prior to PyQPMe staining. […] As mentioned above (FIG. 2C), pH 5-6 is the cut-off point for the red to green fluorescence intensity ratio of PyQPMe, which perfectly matches the pH changes during conversion from early endosomes to late endosomes. […] Inversely, when the ratio is greater than 1, it represents the population of late endosomes/lysosomes (FIGS. 3D, 6D, 6E).
Rapamycin, a classical autophagy inducer, activates autophagy by inhibiting mTOR protein activation. To investigate the effect of rapamycin on endolysosomes, we treated HeLa cells with 0.5 μM rapamycin for 24 h prior to PyQPMe staining. […] To track the dynamics of endolysosomes in classical autophagy, the total endolysosomes and late endosomes/lysosomes in rapamycin-treated cells were quantified. […] Meanwhile, similar to the CCCP-induced mitophagy (FIGS. 6A, 6C), the proportion of late endosomes/lysosomes to total endolysosomes remained the same (~54%) during classical autophagy process (FIG. 6H).
(§1) Leica Stellaris 8 Confocal imaging. High-resolution images were acquired on a commercial Leica Stellaris 8 Confocal Microscope under LIGHTNING mode. Laser powers were set at 10% intensity for 405 nm and 640 nm channels. The objective was 63×/1.4. High-resolution images were captured from the randomly selected field of view and analyzed with Leica LAS X and ImageJ software. All the images were exported on the Auto scale of the Leica LAS X software. Cells were seeded on glassed-bottomed cell dishes (MatTek) for 24 hours. Cells stained with PyQPMe (20 nM, 10 min) were treated with Wortmannin (1 μM, 24 h), CCCP ([…], 24 h), rapamycin (0.5 μM, 24 h), chloroquine (25 μM, 30 min), and NH4Cl (50 mM, 30 min). All PCC values were analyzed in the CellProfiler.

[3] = system: HeLa cells; assay: Confocal imaging of PyQPMe uptake by endocytosis; settings: chloroquine 25 μM, 30 min; NH4Cl 50 mM
Procedure: In some aspects, the probes of the present disclosure can be administered to living cells, either in vitro or in vivo. To take advantage of the absorption and emission spectra of PyQPMe, this probe was administered in high-resolution microscopy for living cells. The toxicity of PyQPMe was examined at first before characterizing its imaging properties. Cell Counting Kit-8 (CCK-8) was used to investigate the viability of HeLa cells stained with PyQPMe. […] Next, PyQPMe was characterized by Leica Stellaris Confocal Microscope in the LIGHTNING module for high-resolution imaging. […] The signal tended to be endolysosomes because endolysosomes have a low pH range from 4.7 to 6.3. […] Since low temperatures can inhibit endocytosis, experiments at a lower temperature were performed.
as §1

[4] = system: endolysosomes in HeLa cells; assay: Dynamics of PyQPMe-stained endolysosomes (puncta counting); settings: wortmannin 1 μM, 24 h
Procedure: FIGS. 5A-5H depict the characterization of dynamics of PyQPMe-stained endolysosomes. FIG. 5A. Confocal images of HeLa cells stained with PyQPMe following treatment with or without Wortmannin for 24 h. FIG. 5B. Schematic illustration of the effect of Wortmannin which inhibits the conversion from early endosomes into late endosomes. FIG. 5C. Quantification of total endolysosomes and late endosomes/lysosomes in PyQPMe-stained HeLa cells with or without Wortmannin treatment. FIG. 5D. The ratio of the number of late endosomes/lysosomes to total endolysosomes in PyQPMe-stained HeLa cells treated with or without Wortmannin. FIG. 5E. Confocal images of HeLa cells stained with PyQPMe for 10 min and 60 min. FIG. 5F. The mean red puncta fluorescence intensity of PyQPMe-stained HeLa cells for 10 min and 60 min incubation. FIG. 5G. Quantification of total endolysosomes and late endosomes/lysosomes in PyQPMe-stained HeLa cells for 10 min and 60 min. FIG. 5H. The ratio of the number of late endosomes/lysosomes to total endolysosomes in PyQPMe-stained HeLa cells for 10 min and 60 min. Data are given as M±SEM (n=10 independent samples from 10 cells for each statistical analysis); the statistical differences were analyzed by Student's t-test, p<0.05 is considered to statistical significant (** p≤0.01; *** p≤0.001; **** p≤0.0001; ns p>0.05).
Because of the popularity of quantitative cell biology, it is important to design powerful tools that can digitize individual cells and subcellular organelles to elucidate biological problems in detail. With its great pH response, long-term photostability, and excellent signal-to-noise ratio for high-resolution imaging, PyQPMe was successfully used to track the dynamics of endolysosomes within cells by counting the number of puncta fluorescence signals in both green and red channels (FIG. 5A).
Next, the effects of different incubation time on the endocytic pathway were tested.
as §1

Compound: CN(C)CCNC(=O)CCc1ccc2n1[B-](F)(F)[N+]1=C(c3ccc[nH]3)C=CC1=C2 [LTR, reference compound]
- fluorescence intensity on photobleaching [1]: disappeared rapidly after two scans

Compound: N#CC(C#N)=NNc1cccc(Cl)c1 [CCCP]
- number of total endolysosomes and late endosomes/lysosomes vs controls ([2]; CCCP 10 μM, 24 h (mitophagy)): significant increase
- ratio of late endosomes/lysosomes to total endolysosomes ([2]; CCCP 10 μM, 24 h, by counting (FIG. 6C)): ~ 55%
- ratio of late endosomes/lysosomes to total endolysosomes from red to green intensity ([2]; CCCP 24 h (FIG. 6E), 52% without CCCP (FIG. 6D)): 56%
- acidity of early and late endosomes ([2]; CCCP, distribution of red to green intensity ratio): both early and late endosomes became more acidic

Compound: Cl.N [NH4Cl, reference compound]
- effect of endocytic inhibitor on PyQPMe fluorescence [3]: significant reduction in fluorescence

Compound: CO[C@H]1C[C@@H]2CC[C@@H](C)[C@@](O)(O2)C(=O)C(=O)N2CCCC[C@H]2C(=O)O[C@H]([C@H](C)C[C@@H]2CC[C@@H](O)[C@H](OC)C2)CC(=O)[C@H](C)/C=C(\C)[C@@H](O)[C@@H](OC)C(=O)[C@H](C)C[C@H](C)/C=C/C=C/C=C/1C [rapamycin]
- fluorescent spots in both green and red channels ([2]; rapamycin 0.5 μM, 24 h): more fluorescent spots
- number of total endolysosomes and late endosomes/lysosomes ([2]; rapamycin 0.5 μM, 24 h): significantly increased
- proportion of late endosomes/lysosomes to total endolysosomes ([2]; rapamycin 0.5 μM, 24 h (FIG. 6H)): ~ 54%

Compound: COC[C@H]1OC(=O)c2coc3c2[C@@]1(C)C1=C(C3=O)[C@@H]2CCC(=O)[C@@]2(C)C[C@H]1OC(C)=O [wortmannin, reference compound]
- number of endolysosomes vs untreated cells [4]: much higher than that in untreated cells
- percentage of late endosomes/lysosomes in total endolysosomes vs untreated [4]: significantly decreased

Compound: CCN(CC)CCCC(C)Nc1ccnc2cc(Cl)ccc12 (stereo not drawn) [chloroquine, reference compound]
- effect of endocytic inhibitor on PyQPMe fluorescence [3]: significant reduction in fluorescence
